Data reported in patent US20220152071A1, “MARKERS OF EFFICACY OF TOPOISOMERASE POISONS” (Northwestern University, priority 2019, published 2022).

Tests used:
FANCB KO SNB19 cells = experiment: Viability assay, FANCB KO cells; format: cell-based, human; conditions: 5 μM, 72 hrs
Description: (§1) Single gene editing. To edit FANCB and RPS11, we used single guide RNAs that were enriched for both genes as well as the non-targeting controls. Briefly, these guides were synthesized by Synthego and following the protocol, we prepared the ribonucleoprotein complexes by mixing the guides (180 pmol) with recombinant Cas9 protein (Synthego) 20 pmol in […]. The complexes were allowed to form at room temp for 15 mins, and then […] of Opti-MEM I reduced serum medium and […] of lipofectamine Cas9 plus reagent were then added. Both, the cells and the formed ribonucleoprotein complexes, were seeded at the same time with 150,000 SNB19 cells in a T25 flask. The cells were incubated for 4 days.
(§2) Viability assay. […] Titre glo was added following incubation with drugs. (Cat No: G7572) and the viability of cells was analyzed 5 min later by measuring the luminescence. We normalized the intensity against DMSO treated cells of each cell line or PDX or the edited cell and then determined the survival. Pictures of these cells were also taken as shown in the source data figures.

RPS11 KO SNB19 cells = experiment: Viability assay, RPS11 KO cells; format: cell-based, human; conditions: 5 μM, 72 hrs
Description: as §1, §2

APAF1, RPS11 KO cells = experiment: APAF1 expression (qRT-PCR, Western blot); format: cell-based, human
Description: (§3) Western blot. […] The cells were lysed using water bath ultrasonicator for 4 mins. Cell lysate were cleared by centrifugation. We measured the concentration of protein in lysates. Denatured lysates were loaded into 4-20% Tris-glycine gels (Novex) and separated at 180V for 2 hrs. The gels were transferred unto a PVDF membrane by semi-dry blotting for 1 hr. We blocked the membrane in 5% non-fat milk TBST buffer for 30 mins and incubated with primary antibodies RPS11 (1:500), FANCB (1:500), GAPDH or ACTB (1:1500) in 5% BSA respectively over night shaking at 4° C. Primary antibodies were removed and we added the secondary polyclonal HRP (1:20,000) in TBST and incubated shaking for 2 hrs at room temp. The membrane were washed 6× in TBST and then developed with ECL (Cat No: 1705061) and band imaged on a Bio-Rad Chemi-doc imaging system. qRT-PCR. […] The total RNA was extracted using Zymo Research kit (Direct-zol RNA Miniprep Plus, Cat no: R2070). The quality of the RNA was determined by RNA pico bioanalyzer measuring the 18S and 28S ribosome. Using the superscript III first strand synthesis system (Cat no: 18080-051), we generated cDNA and performed qPCR with APAF1 and ACTB primers in triplicates and fold change of expression of APAF1 were normalized against actin B (ACTB).

[1] = system: APAF1, SNB19 WT and non-targeting control cells; experiment: APAF1 expression (qRT-PCR, Western blot); format: cell-based, human
Description: as §3

GBM12 [2] = experiment: Etoposide dose-response viability; format: cell-based, human; conditions: GBM12, dose-response in vitro 72 hrs
Description: as §2

GBM43 = experiment: Etoposide dose-response viability; format: cell-based, human; conditions: GBM43, dose-response in vitro 72 hrs
Description: as §2

MES83 = experiment: Etoposide dose-response viability; format: cell-based, human; conditions: MES83, dose-response in vitro 72 hrs
Description: as §2

GBM6 [3] = experiment: Etoposide dose-response viability; format: cell-based, human; conditions: GBM6, dose-response in vitro 72 hrs
Description: as §2

U251 [4] = experiment: Etoposide dose-response viability; format: cell-based, human; conditions: U251, dose-response in vitro 72 hrs
Description: as §2

[5] = system: BID, susceptible glioma cells; experiment: BID expression by flow cytometry; format: cell-based, human; conditions: susceptible glioma cells compared to resistant cells, 24 hrs
Description: (§4) Click-it Plus OPP Assay, Apoptosis Assay and Flow Cytometry. To determine if nascent protein synthesis is impaired upon editing of RPS11 and FANCB. We seeded edited cells SgRPS11, SgFANCB, wild type SNB19 and the non-targeting controls in a 96 well plate with black covers overnight at 4,000 cells/well. […] Following the protocol from Life technologies (Cat No: C10456), we added the Click-it OPP (1:1000), or Caspase 3/7 (Cat no: C10427) or with antibodies against BID, BCL2 or APAF1 for 30 mins. After washing cells were fixed and primary antibodies were detected secondary antibodies conjugated to Alexa Flour 488. The fluorophore intensity was measured by flow cytometry (LSR Fortessa 1 analyzer). As a complementary approach, the labelled cells were also imaged in a fluorescent microscope (Nikon Ti2 Widefield).

GBM12 [6] = experiment: Click-it Plus OPP nascent protein synthesis; format: cell-based, human; conditions: GBM12, 5 μM, 24 hrs
U251 [7] = experiment: Click-it Plus OPP nascent protein synthesis; format: cell-based, human; conditions: U251, 5 μM, 24 hrs
[8] = gliomas and brain metastases, systemic administration, human; cited from earlier work
SNB19 [9] = experiment: Click-it Plus OPP nascent protein synthesis; format: cell-based, human; conditions: SNB19, 5 μM, 24 hrs
Description: as §4

SNB19 cells = experiment: Genome-wide CRISPR KO screen, etoposide selection; format: cell-based, human; conditions: etoposide 5 μM, 14 days, CRISPR KO library SNB19 cells
Description: Large scale cell culture and expansion. To perform the CRISPR screening, SNB19 cells were expanded to 500 million and then spinfected with 70,000sgRNA. After spinfection, the cells are selected with 0.6 μg/ml of puromycin for 4 days. This selection is aimed at the cells that have been rightly integrated with the sgRNA that incorporates the puromycin cassette into their genome. […] We used 50 million of selected cells for the extraction of genomic DNA. The base sgRNA representation is obtained by amplification of the sgRNA with unique barcoded primers. The remaining 100 million cells were expanded for 2 days, once cells grew to 200 million. […] After 14 days, the cells were harvested, the gDNA extracted, and the sgRNA amplified with another unique barcoded primer.

SNB19 [10] = experiment: Viability assay (Titre glo), susceptible glioma cell line; format: cell-based, human; conditions: etoposide 5 μM, 72 hrs
Description: as §2

BCL2, GBM12 = experiment: BCL2 expression by flow cytometry; format: cell-based, human; conditions: GBM12, 24 hrs
Description: as §4

[11] = system: resistant glioma cell lines; experiment: Viability assay, resistant glioma cell lines; format: cell-based, human; conditions: etoposide 5 μM, 72 hrs
Description: as §2

BCL2, GBM6 = experiment: BCL2 expression by flow cytometry; format: cell-based, human; conditions: GBM6, 24 hrs
GBM6 [12] = experiment: Click-it Plus OPP nascent protein synthesis; format: cell-based, human; conditions: GBM6, 5 μM, 24 hrs

For `COc1cccc2c1C(=O)c1c(O)c3c(c(O)c1C2=O)C[C@@](O)(C(=O)CO)C[C@@H]3O[C@H]1C[C@H](N)[C@H](O)[C@H](C)O1` [doxorubicin], the “susceptibility (viability)” value (FANCB KO SNB19 cells) was “acquired resistance” and the “susceptibility (viability)” value (RPS11 KO SNB19 cells) was “resistant”.

In the case of `COc1cc([C@@H]2c3cc4c(cc3[C@@H](O[C@@H]3O[C@@H]5CO[C@@H](C)O[C@H]5[C@H](O)[C@H]3O)[C@H]3COC(=O)[C@H]23)OCO4)cc(OC)c1O` [etoposide], the “APAF1 protein following etoposide treatment” value (APAF1, RPS11 KO cells) is reported as “decrease”, the “APAF1 transcript following etoposide treatment” value (APAF1, RPS11 KO cells; 24 hrs) is reported as “no significant expression changes” and the “APAF1 transcript following etoposide treatment” value ([1]; SNB19 WT and non-targeting control cells, 24 hrs) is reported as “significant induction”. For the same compound, the “APAF1 protein levels following etoposide treatment” value ([1]; SNB19 wild-type and non-targeting control cells) was “increased”, the susceptibility to etoposide (GBM12 [2]) was “resistance” and the susceptibility to etoposide (GBM43) was “less sensitive”. For the same compound, the susceptibility to etoposide (MES83) was “susceptible”, the susceptibility to etoposide (GBM6 [3]) was “resistance” and the susceptibility to etoposide (U251 [4]) was “susceptible”. For the same compound, the “BID expression following etoposide treatment” value [5] was “increased BID expression”, the “nascent proteins following etoposide treatment” value (GBM12 [6]) was “no decrease in nascent proteins” and the “nascent proteins following etoposide treatment” value (U251 [7]) was “decrease in nascent proteins”. For the same compound, the “susceptibility (viability)” value (FANCB KO SNB19 cells) was “acquired resistance”, the “susceptibility (viability)” value (RPS11 KO SNB19 cells) was “resistant” and the “intratumoral concentration in tumor tissue” value [8] was 2 to 6 µM. The “nascent proteins following etoposide treatment” value (SNB19 [9]) was “decrease in nascent proteins”, the cells surviving treatment (SNB19 cells) was “less than 1%” and the cells death (SNB19 [10]) was 80%. The “BCL2 expression following etoposide treatment” value (BCL2, GBM12) was “increase”, the cell death [11] was “minimal cell death” and the “BCL2 expression following etoposide treatment” value (BCL2, GBM6) was “increase”. For the same compound, the “nascent proteins following etoposide treatment” value (GBM6 [12]) was “no decrease in nascent proteins”.
